From paper PMC4411090, “Activating the Wnt/β-Catenin Pathway for the Treatment of Melanoma – Application of LY2090314, a Novel Selective Inhibitor of Glycogen Synthase Kinase-3” (PLoS ONE, 2015) come the findings set out here.

One assay deals with T1, GSK3α (Homo sapiens, UniProt P49840).
T1 construct: gene GSK3A; human recombinant
Briefly: cell-free kinase assay with recombinant enzyme and phosphopeptide substrate. The format is biochemical.

A further assay concerns the target T2, GSK3β (Homo sapiens, UniProt P49841).
T2 construct: gene GSK3B; human recombinant
The description is as above. In kind it is biochemical.

T1 sequence (P49840 2-483): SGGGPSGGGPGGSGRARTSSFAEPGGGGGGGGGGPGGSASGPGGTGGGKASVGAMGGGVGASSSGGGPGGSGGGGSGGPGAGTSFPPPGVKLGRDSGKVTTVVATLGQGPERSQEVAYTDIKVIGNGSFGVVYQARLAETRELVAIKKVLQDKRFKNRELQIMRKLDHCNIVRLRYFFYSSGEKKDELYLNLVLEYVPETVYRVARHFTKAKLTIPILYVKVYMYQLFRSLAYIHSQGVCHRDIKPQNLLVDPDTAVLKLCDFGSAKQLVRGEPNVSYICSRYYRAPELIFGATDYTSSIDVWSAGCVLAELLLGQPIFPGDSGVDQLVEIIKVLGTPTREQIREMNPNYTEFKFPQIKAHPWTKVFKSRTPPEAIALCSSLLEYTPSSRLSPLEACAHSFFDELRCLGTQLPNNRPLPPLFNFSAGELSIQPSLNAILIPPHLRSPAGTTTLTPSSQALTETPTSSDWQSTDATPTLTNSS
T2 sequence (P49841 whole entry): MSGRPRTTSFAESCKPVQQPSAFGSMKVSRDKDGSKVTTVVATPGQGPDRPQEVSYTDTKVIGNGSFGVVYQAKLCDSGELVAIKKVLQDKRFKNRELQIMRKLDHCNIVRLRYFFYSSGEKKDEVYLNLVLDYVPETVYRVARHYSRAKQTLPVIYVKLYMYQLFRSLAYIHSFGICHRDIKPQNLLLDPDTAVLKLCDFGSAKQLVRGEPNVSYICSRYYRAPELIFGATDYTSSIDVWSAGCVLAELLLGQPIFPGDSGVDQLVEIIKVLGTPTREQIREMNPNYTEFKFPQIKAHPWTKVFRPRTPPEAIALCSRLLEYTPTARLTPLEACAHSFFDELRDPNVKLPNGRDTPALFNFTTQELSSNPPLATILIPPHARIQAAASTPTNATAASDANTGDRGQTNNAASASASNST

One may read the IC50 as the concentration at which inhibition is half-maximal. Take `O=C1NC(=O)C(c2cnc3ccccn23)=C1c1cn2c3c(cc(F)cc13)CN(C(=O)N1CCCCC1)CC2` [LY2090314]: the results for the IC50 on GSK3α and on GSK3β were 1.5 nM and 0.9 nM, respectively.
